Where a SMILES comes first, the peptide text is derived from it. [ ]: non-standard residue; d: D form. ξ: configuration not given here. ξW = NC(Cc1c[nH]c2ccccc12)C(=O)O
Row | Structure (SMILES) | logP
1 | Clc1ccc(-c2cnn(-c3ccccn3)c2)cc1 | 4.3
2 | CC(=O)N(c1nc(=O)n(C(C)C)c(=O)n1C)C(C)C | 0.18
3 | CCOP(=O)(OCC)C(C)(C)[N+]([O-])=Cc1cccnc1 | 0.41
4 | CC(C)CC(N)C(=O)N1CCCC1C(=O)NC(CC(C)C)C(=O)O (stereo not given) | -1.56
5 | COc1cccc2c1OP(=O)(OCC1C=CC(n3cc(C)c(=O)[nH]c3=O)O1)OC2 (stereo not given) | 0.15
6 | c1ccc(CCCNc2[nH]cnc3ncnc2-3)cc1 | 2.85
7 | CCSSc1ncc[nH]1 | 2.13
8 | CC(C)CC(Nc1ccc([N+](=O)[O-])cc1[N+](=O)[O-])C(=O)O (stereo not given) | 3.25
9 | COc1ccc(-c2ccoc2)cc1CNC1CCCNC1c1ccccc1 (stereo not given) | 4.2
10 | O=C(NC1CCCCC1)NS(=O)(=O)c1cnccc1NC1CCCCC1 | 4.23
11 | O=C(Nc1ncc([N+](=O)[O-])s1)c1ccc(Br)cc1 | 3.58
12 | OC(CNCC1COc2ccccc2O1)CON=C(C1CC1)C1CC1 (stereo not given) | 2.22
13 | C[N+](C)([O-])CCc1ccccc1 | -0.28
14 | OCc1cnc(O)nc1O | -1.94
15 | COC(=O)C(C)NP(=O)(OCC1C=CC(n2cc(C)c(=O)[nH]c2=O)O1)Oc1cccc(F)c1 (stereo not given) | 1.08
16 | CCC(=O)Nc1ccc2cc3ccc(N)c(CO)c3nc2c1 | 1.55
17 | O=C1c2ccccc2-c2nncc(-c3ccccc3)c21 | 2.8
18 | CCC(C)C(NC(=O)C(NC(=O)C(N)CC(C)C)C(C)CC)C(=O)O (stereo not drawn) (H-Leu-Ile-Ile-OH; configuration not given here) | -1.11
19 | CCCCOc1ccc(NC(=O)OCCN2CCCCC2)cc1 | 4.69
20 | CCC(C)c1cnc(CC(C)C)c(=O)n1O (stereo not given) | 1.81
21 | CCCCCCCCNCCO | 2.75
22 | O=C(NC1CCCCCCC1)NS(=O)(=O)c1cnccc1NC1CCCCCC1 | 5.34

Row | Structure (SMILES) | logP
23 | CCCN(CCC)C1CCc2ccc(O)cc2C1 (stereo not given) | 3.75
24 | COc1ccc(C(=O)NN=Cc2c(CO)ccc(C)c2O)cc1 | 3.34
25 | c1[nH]nc2c1CCC1c3n[nH]cc3CCC21 (stereo not given) | 0.3
26 | COc1ccc2c(C)cc(=O)oc2c1 | 1.89
27 | Clc1cc2c(c(Cl)c1Cl)Oc1c(Cl)ccc(Cl)c1O2 | 6.24
28 | Clc1ccc(Cl)c2c1oc1c(Cl)ccc(Cl)c12 | 5.6
29 | CCCCCCCNC1=NS(=O)N=C1NCCSCc1ccc(CN(C)C)o1 (stereo not given) | 3.91
30 | CC(=O)OC(C)(C)C1CCC2(C)CCCC3(CO3)C2C1 (stereo not given) | 4.08
31 | Cn1nc(C(F)(F)F)n(-c2ccccc2)c1=S | 2.58
32 | CC(=O)OCOC(=O)C(C)c1cccc(C(=O)c2ccccc2)c1 (stereo not given) | 3.4
33 | CC(=O)OCc1ccccn1 | 0.39
34 | Clc1ccccc1CNc1ncnc2nc[nH]c12 | 2.76
35 | Brc1ccc(Br)c(N=C2NCCN2)c1 | 2.71
36 | CCOC(=O)c1ccc(N=NN(C)C(=O)OCOC(=O)C(C)NC(C)=O)cc1 (stereo not given) | 2.73
37 | CCC(C)C(N)C(=O)NC(C(=O)NCC(=O)NC(Cc1ccccc1)C(=O)O)C(C)CC (stereo not given) (H-IIGF-OH; configuration not given here) | -0.99
38 | CC(C)NC(=NC#N)NS(=O)(=O)c1cnccc1NC1CCCC1 | 0.98
39 | COC(=O)Nc1c(C(C)C)cccc1C(C)C | 2.2
40 | CCCC(=NOCC)C1=C(O)CC2(CCC(CC(C)(C)C)CC2)OC1=O (stereo not given) | 5.3
41 | NCC(=O)NC(Cc1c[nH]c2ccccc12)C(N)=O (stereo not given) (H-Gly-[ξW]-NH2) | -0.48
42 | CCCON=C(C)c1cccc(Oc2nc(OC)cc(OC)n2)c1C(=O)OC | 3.59
43 | CC(C)CC(NC(=O)C(N)Cc1c[nH]c2ccccc12)C(=O)NC(Cc1ccccc1)C(=O)NC(C)C(=O)NC(C)C(=O)O (stereo not given) (H-WLFAA-OH; configuration not given here) | -0.32
44 | O=C(O)Cc1ccccc1Nc1c(F)cccc1F | 3.57

Row | Structure (SMILES) | logP
45 | O=C(Cc1ccccc1)c1c(O)c2ccc(Cl)cc2[nH]c1=O | 3.66
46 | C=CCNC(=O)N(CCCC(NC(C)=O)C(=O)NCc1ccccc1)Cc1ccccc1 (stereo not given) | 1.44
47 | Cc1ccccc1Nc1ccncc1S(=O)(=O)NC(=NC#N)NC(C)C | 1.67
48 | Cc1cc2c(o1)c(C)c(C)c1ccc(=O)oc12 | 3.26
49 | COc1ccc2cc(C(C)C(=O)OCOC(C)=O)ccc2c1 (stereo not given) | 3.4
50 | O=C(NCC(F)(F)F)NS(=O)(=O)c1cnccc1NC1CCCCCC1 | 3.85
51 | NCCCOC1Cc2c(O)cc(O)cc2OC1c1ccc(O)c(O)c1 (stereo not given) | 0.52
52 | CNC(Cc1ccccc1)C(=O)N1CCCC1C(=O)NCC1CCC(N)CC1 (stereo not given) | 1.12
53 | CN(C)CCOC(=O)c1ccc(C(F)(F)F)cc1 | 2.88
54 | Cc1nc2c3c(c(C(=O)N(C)C)cn2c1Br)CCC(c1ccccc1)O3 (stereo not given) | 3.4
55 | Nc1nnnn1-c1ccc(O)cc1 | 0.33
56 | O=c1nc(Nc2ccccc2)[nH]c2c1ncn2CCCCO | 1.26
57 | CN1CCc2cccc(Cl)c2CC1 | 2.92
58 | CCC(=O)NCc1c(O)c(=O)cc(C)n1C | -0.72
59 | CC(C)(C)[N+]([O-])=Cc1ccc(Br)cc1 | 2
60 | COC(=O)C1=C(C)NC(C)=C(C(=O)OCC=Cc2ccccc2)C1c1cccc([N+](=O)[O-])c1 (stereo not given) | 5.69
61 | CCNC(=O)NS(=O)(=O)c1cnccc1Nc1ccccc1C | 3.06
62 | CCC(C)C(N)C(=O)N1CCCC1C(=O)O (stereo not drawn) (H-Ile-Pro-OH; configuration not given here) | -1.79
63 | c1nc(N2CCCC2)c2[nH]cnc2n1 | 1.68
64 | COc1ccc(NC(=O)OCCN2CCCCC2)cc1 | 2.95
65 | C[N+](C)([O-])CCC(c1ccccc1)c1ccccc1 | 1.1
66 | OCCNc1ncnc2nc[nH]c12 | -0.18

Row | Structure (SMILES) | logP
67 | C=CCC1C(=O)N(CCN(C)C)c2cccc(C(F)(F)F)c2CC1c1ccc(OC)cc1 (stereo not given) | 6.6
68 | Nc1nc(N)c2c(N3CCOCC3)cccc2n1 | 1.11
69 | CCC(C)C(NC(=O)C(CC(C)C)NC(=O)C(N)CO)C(=O)O (stereo not drawn) (H-Ser-Leu-Ile-OH; configuration not given here) | -1.99
70 | CCCc1cccc(CNc2[nH]cnc3ncnc2-3)c1 | 3.53
71 | CC(C)(C)NC(=O)[C@@H]1CN(Cc2cccnc2)CCN1C[C@@H](O)C[C@@H](Cc1ccccc1)C(=O)N[C@H]1c2ccccc2C[C@H]1O | 3.49
72 | COc1ccc(C2Cc3c(C)cccc3N(CCN(C)C)C(=O)C2OC(C)=O)cc1 (stereo not given) | 3.7
73 | CC(C)(C)NCc1ccc(S(=O)(=O)c2csc(S(N)(=O)=O)c2)cc1 | 1.76
74 | O=[N+]([O-])c1nccn1CC(O)COCF (stereo not given) | -0.4
75 | O=C(O)CCC(=O)OC1Cc2c(O)cc(O)cc2OC1c1ccc(O)c(O)c1 (stereo not given) | 1.41
76 | COC1C(OC(C)=O)CC(=O)OC(C)CC=CC=CC(=O)C(C)CC(CC=O)C1OC1OC(C)C(OC2CC(CO)C(OC(=O)CC(C)C)C(C)O2)C(N(C)C)C1O (stereo not given) | 3.52
77 | COc1ccc(Nc2nc(O)nc(NC(C)C)n2)cc1OC | 3.49
78 | CC(C)=CC1C(C(=O)OCc2cccc(C(=O)c3ccccc3)c2)C1(C)C (stereo not given) | 6.54
79 | Nc1nc(NC2CC2)c2ncn([C@@H]3C=C[C@@H](CO)C3)c2n1 | 1.22
80 | O=C1CN=C(c2ccccc2F)c2cc(Br)ccc2N1 | 2.98
81 | COc1cc(OC)nc(Sc2cccc(Oc3ccccc3)c2C(=O)O)n1 | 4.15
82 | CCNC1CCc2c(OC)cccc2C1C (stereo not given) | 2.67
83 | CCOC(=O)c1[nH]cc(-c2ccc(Cl)cc2)c1N1CCOCC1 | 3.9
84 | Cc1cc2cc3c(C)cc(=O)oc3cc2o1 | 2.82
85 | O=C(NP(=O)(N1CC1)N1CC1)c1ccc(F)cc1 | 0.86

— the OPERA property sets (Mansouri et al. 2018)
